Experimental data: PubChem BioAssay (NCI)
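Five compound concentrations were applied to cells in 96-well plates for 48 hours; endpoints were derived by simple linear interpolation of the resulting dose-response curve. Here, GI50 denotes the concentration required for 50% inhibition of growth. TGI: total growth inhibition.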

Tests used:
Assay in all cases: NCI anticancer screen, dose series, 48 h
HOP-62 NSCLC = test system: HOP-62 NSCLC
SW-620 colon = test system: SW-620 colon
OVCAR-8 ovarian = test system: OVCAR-8 ovarian
NCI-H23 lung = test system: NCI-H23 lung
MOLT-4 leukemia = test system: MOLT-4 leukemia
SNB-19 CNS = test system: SNB-19 CNS
SK-MEL-5 melanoma = test system: SK-MEL-5 melanoma
NCI/ADR-RES ovarian = test system: NCI/ADR-RES ovarian
SN12C renal = test system: SN12C renal
NCI-H460 lung = test system: NCI-H460 lung
SF-268 CNS = test system: SF-268 CNS
UO-31 renal = test system: UO-31 renal
MDA-MB-435 = test system: MDA-MB-435
SK-OV-3 ovarian = test system: SK-OV-3 ovarian
NCI-H522 lung = test system: NCI-H522 lung
EKVX NSCLC = test system: EKVX NSCLC
HL-60(TB) leukemia = test system: HL-60(TB) leukemia
UACC-62 melanoma = test system: UACC-62 melanoma
OVCAR-5 ovarian = test system: OVCAR-5 ovarian
BT-549 breast = test system: BT-549 breast
IGROV1 ovarian = test system: IGROV1 ovarian
LOX IMVI melanoma = test system: LOX IMVI melanoma
CCRF-CEM leukemia = test system: CCRF-CEM leukemia
U251 CNS = test system: U251 CNS
RXF 393 renal = test system: RXF 393 renal
KM12 colon = test system: KM12 colon
UACC-257 melanoma = test system: UACC-257 melanoma
ACHN renal = test system: ACHN renal
HCT-15 colon = test system: HCT-15 colon
SR leukemia = test system: SR leukemia
COLO 205 colon = test system: COLO 205 colon
M14 melanoma = test system: M14 melanoma
A549 NSCLC = test system: A549 NSCLC
786-0 renal = test system: 786-0 renal
SF-295 CNS = test system: SF-295 CNS
HCT-116 colon = test system: HCT-116 colon
MDA-MB-231 breast = test system: MDA-MB-231 breast
OVCAR-3 ovarian = test system: OVCAR-3 ovarian
TK-10 renal = test system: TK-10 renal
PC-3 prostate = test system: PC-3 prostate
HOP-92 NSCLC = test system: HOP-92 NSCLC
T-47D breast = test system: T-47D breast
NCI-H226 lung = test system: NCI-H226 lung
MALME-3M melanoma = test system: MALME-3M melanoma
A498 renal = test system: A498 renal
DU-145 prostate = test system: DU-145 prostate
HCC-2998 colon = test system: HCC-2998 colon
SF-539 CNS = test system: SF-539 CNS
RPMI-8226 leukemia = test system: RPMI-8226 leukemia
K-562 leukemia = test system: K-562 leukemia
HT29 colon = test system: HT29 colon

## Nc1ccc(N=Nc2ccccc2)c(N)n1
HOP-62 NSCLC
  GI50: 33.9 µM
  TGI: > 100 µM
SW-620 colon
  GI50: 28.6 µM
  TGI: > 100 µM
OVCAR-8 ovarian
  GI50: 37.5 µM
  TGI: > 100 µM
NCI-H23 lung
  GI50: 31.9 µM
  TGI: > 100 µM
MOLT-4 leukemia
  GI50: 35.4 µM
  TGI: > 100 µM
SNB-19 CNS
  GI50: 40.7 µM
  TGI: > 100 µM
SK-MEL-5 melanoma
  GI50: 26.3 µM
  TGI: > 100 µM
NCI/ADR-RES ovarian
  GI50: 31 µM
  TGI: > 100 µM
SN12C renal
  GI50: 30.4 µM
  TGI: > 100 µM
NCI-H460 lung
  GI50: 29.1 µM
  TGI: 97.4 µM
SF-268 CNS
  GI50: 16.8 µM
  TGI: 72.9 µM
UO-31 renal
  GI50: 13.7 µM
  TGI: 43 µM
MDA-MB-435
  GI50: 22.4 µM
  TGI: 80.1 µM
SK-OV-3 ovarian
  GI50: 30.1 µM
  TGI: > 100 µM
NCI-H522 lung
  GI50: 22.9 µM
  TGI: 86.2 µM
EKVX NSCLC
  GI50: 4.08 µM
  TGI: 33.4 µM
HL-60(TB) leukemia
  GI50: 27.5 µM
  TGI: > 100 µM
UACC-62 melanoma
  GI50: 32.6 µM
  TGI: > 100 µM
OVCAR-5 ovarian
  GI50: 40.3 µM
  TGI: > 100 µM
BT-549 breast
  GI50: 16.6 µM
  TGI: 46.1 µM
IGROV1 ovarian
  GI50: 23.7 µM
  TGI: 77.5 µM
LOX IMVI melanoma
  GI50: 29 µM
  TGI: > 100 µM
CCRF-CEM leukemia
  GI50: 29.4 µM
  TGI: > 100 µM
U251 CNS
  GI50: 29.8 µM
  TGI: > 100 µM
RXF 393 renal
  GI50: 20.3 µM
  TGI: 60.7 µM
KM12 colon
  GI50: 15.5 µM
  TGI: 56.6 µM
UACC-257 melanoma
  GI50: 38.6 µM
  TGI: > 100 µM
ACHN renal
  GI50: 37.2 µM
  TGI: > 100 µM
HCT-15 colon
  GI50: 35.8 µM
  TGI: > 100 µM
SR leukemia
  GI50: 18.1 µM
  TGI: > 100 µM
COLO 205 colon
  GI50: 26.1 µM
  TGI: 72.8 µM
M14 melanoma
  GI50: 29.4 µM
  TGI: 74.9 µM
A549 NSCLC
  GI50: 27.4 µM
  TGI: > 100 µM
786-0 renal
  GI50: 20.8 µM
  TGI: 44.4 µM
SF-295 CNS
  GI50: 17 µM
  TGI: 50.9 µM
HCT-116 colon
  GI50: 23 µM
  TGI: 60.5 µM
MDA-MB-231 breast
  GI50: 18 µM
  TGI: 73.7 µM
OVCAR-3 ovarian
  GI50: 20.2 µM
  TGI: 67.9 µM
TK-10 renal
  GI50: 41.2 µM
  TGI: > 100 µM
PC-3 prostate
  GI50: 21.7 µM
  TGI: > 100 µM
HOP-92 NSCLC
  GI50: 14.8 µM
  TGI: 65.9 µM
T-47D breast
  GI50: 23.4 µM
  TGI: > 100 µM
NCI-H226 lung
  GI50: 62.6 µM
  TGI: > 100 µM
MALME-3M melanoma
  GI50: 48.5 µM
  TGI: > 100 µM
A498 renal
  GI50: 12.9 µM
  TGI: 39.8 µM
DU-145 prostate
  GI50: 25.2 µM
  TGI: 81 µM
HCC-2998 colon
  GI50: 24.8 µM
  TGI: 58.8 µM
SF-539 CNS
  GI50: 29.9 µM
  TGI: > 100 µM
RPMI-8226 leukemia
  GI50: 36.2 µM
  TGI: > 100 µM
K-562 leukemia
  GI50: 42.7 µM
  TGI: > 100 µM
HT29 colon
  GI50: 34.5 µM
  TGI: > 100 µM
